Reference: patent US20260226054A1, “CRYSTAL FORM AND AMORPHOUS SUBSTANCE OF INDOLINE SPIRO COMPOUND, AND PREPARATION METHOD THEREFOR AND USE THEREOF” (CHANGCHUN GENESCIENCE PHARMACEUTICAL CO., LTD., priority 2022, published 2026)

How the values were obtained:
in vitro = conditions: human, Caco-2, pH 7.4
Protocol: A transport buffer solution in the study was HBSS containing 10.0 mM of HEPSS, and had pH of 7.40±0.05. The compound to be tested was subjected to bidirectional test at 2.00 μM, and the final concentration of DMSO was required to be less than 1%. In a CO2 incubator at 37±1° C., the cell plate was stood and incubated for 2 h under CO2 at 5% […] and saturated humidity. After mixing all samples with acetonitrile containing internal standard, the mixture was centrifuged at 3200×g for 10 min. The compound was tested, 100 μL of supernatant was diluted with 100 μL of ultrapure water for LC-MS/MS analysis. The concentration of the test compound and a control compound (Digoxin as a model verification compound and ibutamoren as a positive control) in a donor solution and a receiver solution was quantified by an LC-MS/MS method using the peak area ratio of the analyte/internal standard. After transport determination, a lucifer yellow exclusion determination was carried out to determine the integrity of the Caco-2 cell monolayer.

human GHSR = molecular target: T1, human GHSR (Homo sapiens, UniProt Q92847); assay: Agonistic activity on human GHSR in human GHSR/CHO cells (FLIPR calcium); format: cell-based; conditions: human GHSR/CHO stable transformant cells, Fluo-4 FLIPR
T1 construct: expressed in transfected cells
Protocol: This method is used for determining the agonistic activity effect of the compound in the present invention on human GHSR protein expressed in human GHSR/CHO stable transformant cells.
Preparation of buffer solution: HBSS (1X): HEPES (1M)=49:1, 0.5% BSA added.
Human GHSR/CHO containing stable transformant cells were inoculated in a 384-well plate, a cell plate was taken out after overnight, the culture medium was removed, and 20 μL of buffer solution was slowly added in each well, then 20 μL of 2X Fluo-4 Direct™ No-wash Loading Buffer was added in each well. The cell plate was incubated in an incubator containing 5% of CO2 at 37° C. for 50 min, and the cell plate was taken out and placed at room temperature for 10 min. 30 μL of buffer solution was added to each well in the compound plate; an additional buffer solution plate was prepared, and 30 μL of buffer solution was added to each well. […] 10 μL of buffer solution was transferred to the cell plate, the fluorescence signal values were read. 10 μL of compound was transferred to the cell plate, the fluorescence signal values were read. The maximum-minimum values from the 91st signal point to the 230th signal point were calculated through the FLIPR program. The EC50 value of the compound could be calculated by the software using the fluorescence value corresponding to the different concentrations.

T1 sequence (Q92847 whole entry): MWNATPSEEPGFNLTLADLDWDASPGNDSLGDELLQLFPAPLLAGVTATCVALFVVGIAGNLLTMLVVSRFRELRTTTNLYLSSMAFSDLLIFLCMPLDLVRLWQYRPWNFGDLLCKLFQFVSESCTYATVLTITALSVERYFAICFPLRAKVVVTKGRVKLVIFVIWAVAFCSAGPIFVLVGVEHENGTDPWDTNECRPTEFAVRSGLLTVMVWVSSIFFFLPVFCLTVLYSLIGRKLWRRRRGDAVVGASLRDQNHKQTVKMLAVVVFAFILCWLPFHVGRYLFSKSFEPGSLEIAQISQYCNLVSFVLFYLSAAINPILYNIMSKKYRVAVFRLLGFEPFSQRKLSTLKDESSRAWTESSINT

## CC(OC(=O)NC(C)(C)C(=O)N[C@H](COCc1ccccc1)C(=O)N1CCC2(CC1)CN(S(C)(=O)=O)c1ccccc12)OC(=O)C(C)C (stereo partly drawn) [Compound 1e, (4R)-7,7-dimethyl-4-(1-(methylsulfonyl)spiro[indoline-3,4′-piperidine]-1′-carbonyl)-6,9-dioxo-1-phenyl-2,10-dioxa-5,8-diazadodecane-11-ylisobutyrate]
In vitro
  Papp A→B at 2 h, 2 μM: 0.0518 ×10⁻⁶ cm/s
  Papp B→A at 2 h, 2 μM: 8.8 ×10⁻⁶ cm/s
  efflux ratio at 2 h, 2 μM: 170
Human GHSR
  EC50: 14.6 nM
